Laboratory results published in ChEMBL document CHEMBL5360533, “Targeting ecto-5'-nucleotidase: A comprehensive review into small molecule inhibitors and expression modulators” (Eur J Med Chem, 2023).
Blank lines part the entries; values can stand above or below the compound they belong to.

Key:
HeLa [1] = experiment: Cytotoxicity against human HeLa cells; assay type: functional, cell-based
5'-nucleotidase [2] = target: T1, 5'-nucleotidase (Homo sapiens, UniProt P21589); experiment: Inhibition of human recombinant Ecto-5'-nucleotidase
T1 sequence (P21589 whole entry): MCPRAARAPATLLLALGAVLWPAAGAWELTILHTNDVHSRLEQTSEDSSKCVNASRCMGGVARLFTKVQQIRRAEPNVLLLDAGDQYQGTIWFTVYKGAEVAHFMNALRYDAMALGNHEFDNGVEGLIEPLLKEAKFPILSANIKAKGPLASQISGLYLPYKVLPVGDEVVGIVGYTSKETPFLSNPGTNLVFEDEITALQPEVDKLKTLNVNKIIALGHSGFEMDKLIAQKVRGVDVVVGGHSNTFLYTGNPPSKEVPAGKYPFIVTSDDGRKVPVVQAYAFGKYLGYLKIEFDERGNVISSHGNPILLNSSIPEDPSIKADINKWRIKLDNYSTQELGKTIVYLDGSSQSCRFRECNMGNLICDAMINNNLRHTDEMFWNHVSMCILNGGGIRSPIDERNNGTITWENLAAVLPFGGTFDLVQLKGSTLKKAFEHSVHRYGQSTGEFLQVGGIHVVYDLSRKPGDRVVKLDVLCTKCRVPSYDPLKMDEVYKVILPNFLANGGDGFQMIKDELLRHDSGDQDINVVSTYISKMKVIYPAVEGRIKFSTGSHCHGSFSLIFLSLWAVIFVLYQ

5'-nucleotidase [3] = target: T1, 5'-nucleotidase; experiment: Binding affinity to human recombinant Ecto-5'-nucleotidase assessed as inhibition constant
5'-nucleotidase [4] = target: T2, 5'-nucleotidase (Mus musculus, UniProt Q61503); experiment: Inhibition of mouse Ecto-5'-nucleotidase
T2 sequence (Q61503 whole entry): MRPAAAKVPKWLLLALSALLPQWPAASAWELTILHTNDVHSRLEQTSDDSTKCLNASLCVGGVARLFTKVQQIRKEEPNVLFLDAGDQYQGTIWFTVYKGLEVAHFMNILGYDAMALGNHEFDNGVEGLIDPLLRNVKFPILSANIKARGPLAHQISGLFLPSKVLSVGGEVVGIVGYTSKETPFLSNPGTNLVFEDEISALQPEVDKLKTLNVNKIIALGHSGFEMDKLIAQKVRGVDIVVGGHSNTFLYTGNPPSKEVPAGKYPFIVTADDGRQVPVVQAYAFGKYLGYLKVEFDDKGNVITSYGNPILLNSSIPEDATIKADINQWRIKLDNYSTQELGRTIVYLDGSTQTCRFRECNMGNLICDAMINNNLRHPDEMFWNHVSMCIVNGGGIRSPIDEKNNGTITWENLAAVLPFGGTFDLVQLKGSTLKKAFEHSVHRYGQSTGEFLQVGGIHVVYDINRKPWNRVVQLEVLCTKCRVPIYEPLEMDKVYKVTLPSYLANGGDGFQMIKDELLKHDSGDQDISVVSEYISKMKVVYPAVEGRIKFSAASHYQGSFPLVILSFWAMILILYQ

5'-nucleotidase [5] = target: T1, 5'-nucleotidase; experiment: Inhibition of human recombinant CD73
5'-nucleotidase [6] = target: T1, 5'-nucleotidase; experiment: Inhibition of N-terminal human Ecto-5'-nucleotidase at 250 uM relative to control
5'-nucleotidase [7] = target: T1, 5'-nucleotidase; experiment: Inhibition of human N-terminal Ecto-5'-nucleotidase
5'-nucleotidase [8] = target: T1, 5'-nucleotidase; experiment: Inhibition of human Ecto-5'-nucleotidase in rat C6 cells at 200 uM relative to control; assay type: cell-based
5'-nucleotidase [9] = target: T1, 5'-nucleotidase; experiment: Inhibition of human Ecto-5'-nucleotidase in rat C6 cells at 100 uM relative to control; assay type: cell-based
HeLa [10] = experiment: Cytotoxicity against human HeLa cells assessed as inhibition of cell viability at 100 uM measured after 24 hrs by MTT assay; assay type: functional
[11] = Cytotoxicity against hamster BHK-21 cells assessed as inhibition of cell viability at 100 uM measured after 24 hrs by MTT assay; assay type: toxicity, cell-based, Mesocricetus auratus; conditions: read-out: INH
Trichomonas vaginalis = experiment: Antiprotozoal activity against Trichomonas vaginalis ATCC 30236 assessed as parasitic growth inhibition measured after 24 hrs by cytometry analysis; assay type: functional, organism-based; conditions: ATCC 30236, 24 h
5'-nucleotidase [12] = target: T1, 5'-nucleotidase; experiment: Inhibition of human CD73 expressed in A-375 cells; assay type: cell-based
5'-nucleotidase [13] = target: T1, 5'-nucleotidase; experiment: Inhibition of human CD73
5'-nucleotidase [14] = target: T1, 5'-nucleotidase; experiment: Inhibition of recombinant CD73 (unknown origin)
[15] = target: T3, Alkaline phosphatase, tissue-nonspecific isozyme (Homo sapiens, UniProt P05186); experiment: Inhibition of human TNAP
T3 sequence (P05186 whole entry): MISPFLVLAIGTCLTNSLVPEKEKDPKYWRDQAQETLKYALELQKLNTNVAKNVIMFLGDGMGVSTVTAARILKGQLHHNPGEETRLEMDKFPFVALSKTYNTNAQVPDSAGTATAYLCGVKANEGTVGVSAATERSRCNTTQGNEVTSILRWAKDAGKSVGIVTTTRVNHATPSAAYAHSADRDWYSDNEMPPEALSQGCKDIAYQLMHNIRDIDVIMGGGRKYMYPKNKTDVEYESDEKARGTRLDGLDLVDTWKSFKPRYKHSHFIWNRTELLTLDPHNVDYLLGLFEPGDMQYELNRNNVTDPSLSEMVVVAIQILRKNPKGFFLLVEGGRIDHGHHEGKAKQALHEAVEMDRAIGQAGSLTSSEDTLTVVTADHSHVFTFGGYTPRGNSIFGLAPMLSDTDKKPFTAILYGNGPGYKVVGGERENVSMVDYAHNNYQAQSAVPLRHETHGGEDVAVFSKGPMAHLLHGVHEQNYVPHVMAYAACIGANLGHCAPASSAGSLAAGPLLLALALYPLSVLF

5'-nucleotidase [16] = target: T4, 5'-nucleotidase (Rattus norvegicus, UniProt P21588); experiment: Inhibition of rat Ecto-5'-nucleotidase
T4 sequence (P21588 whole entry): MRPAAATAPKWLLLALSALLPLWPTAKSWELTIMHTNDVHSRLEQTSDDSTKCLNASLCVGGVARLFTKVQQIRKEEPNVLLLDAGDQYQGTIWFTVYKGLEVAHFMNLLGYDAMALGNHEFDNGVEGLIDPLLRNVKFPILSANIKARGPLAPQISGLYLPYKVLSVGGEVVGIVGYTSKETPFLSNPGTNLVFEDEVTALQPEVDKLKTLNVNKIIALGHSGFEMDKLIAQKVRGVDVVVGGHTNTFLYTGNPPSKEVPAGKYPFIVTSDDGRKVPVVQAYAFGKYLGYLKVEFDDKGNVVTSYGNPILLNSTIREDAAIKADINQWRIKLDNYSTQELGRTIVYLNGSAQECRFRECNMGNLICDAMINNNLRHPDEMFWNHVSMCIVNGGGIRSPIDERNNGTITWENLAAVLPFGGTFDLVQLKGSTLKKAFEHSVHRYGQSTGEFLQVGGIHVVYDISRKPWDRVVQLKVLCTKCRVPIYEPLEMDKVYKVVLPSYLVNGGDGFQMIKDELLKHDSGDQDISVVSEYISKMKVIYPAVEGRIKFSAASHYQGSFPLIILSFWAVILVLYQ

5'-nucleotidase [17] = target: T1, 5'-nucleotidase; experiment: Inhibition of human recombinant CD73 in MDA-MB-231 cells at 12.5 ug/ml incubated for 24 hrs by Western blot analysis relative to control; assay type: cell-based; conditions: dose 12.5 µg/ml
5'-nucleotidase [18] = target: T1, 5'-nucleotidase; experiment: Inhibition of human recombinant CD73 in mouse 4T1 cells at 12.5 ug/ml incubated for 24 hrs by Western blot analysis relative to control; assay type: cell-based; conditions: dose 12.5 µg/ml

SMILES: CCc1ccc2occ(/C=N/NS(=O)(=O)c3ccc(C)cc3)c(=O)c2c1
- IC50 (HeLa [1]): 86 µM

SMILES: O=c1oc(/C=C/c2ccc(O)c(O)c2)cc2oc3cc(O)c(O)cc3c12 [PHELLIBAUMIN A]
- IC50 (5'-nucleotidase [5]): 17.1 µM

SMILES: O=C1c2cc3c(cc2[C@@H]2[C@H](O)[C@@H](O)C=C4CCN1[C@H]42)OCO3
- inhibition (5'-nucleotidase [6]): 88%

SMILES: O=S1(=O)NC(Nc2cccc3[nH]ncc23)=Nc2c1cc(Cl)c(F)c2O
- IC50 (5'-nucleotidase [5]): 0.015 µM

SMILES: CCOC(=O)C1=C(C)NC(=S)NC1c1ccc(N(C)C)cc1 (stereo not given)
- inhibition (5'-nucleotidase [8]): 48%
- inhibition (5'-nucleotidase [9]): 36%

SMILES: O=C1CNC(=S)N1/N=C/c1ccc(Br)s1
- inhibition at 100 µM (HeLa [10]): 4.31%
- cytotoxicity at 24 h, 100 µM [11]: 4.31%

SMILES: C=Cn1cc[n+](Cc2ccc(O)c(C=O)c2)c1
- IC50 (5'-nucleotidase [7]): 1140 nM
- IC50 (5'-nucleotidase [4]): 1930 nM

SMILES: COc1c2c(cc3c1C(=O)O[C@H]1[C@@H]3[C@H]3C(=C[C@@H]1O)CCN3C)OCO2
- inhibition (5'-nucleotidase [6]): 59%

SMILES: CCCC(=O)c1c(O)c2c(c(CC3=C(O)C(C)(CC=C(C)C)C(=O)C(C(=O)C(C)C)=C3O)c1O)OC(C)(C)C=C2 (stereo not given)
- IC50 (Trichomonas vaginalis): 38 µM

SMILES: O=P(O)(O)COC[C@H]1O[C@@H](n2ncc3c(N4CC5(CCc6ccccc65)C4)nc(Cl)nc32)[C@H](O)[C@@H]1O
- IC50 (5'-nucleotidase [12]): 0.051 nM
- IC50 (5'-nucleotidase [13]): 0.05 nM

SMILES: O=P(O)(O)CP(=O)(O)C[C@@H](O)[C@H]1O[C@@H](n2cc(-c3cc(C(F)(F)F)cc(C(F)(F)F)c3)nn2)[C@H](O)[C@@H]1O
- IC50 (5'-nucleotidase [14]): 4800 nM

SMILES: Cc1ccc(S(=O)(=O)N/N=C/c2coc3ccc(Br)cc3c2=O)cc1
- IC50 (HeLa [1]): 30.2 µM

SMILES: Nc1ncnc2c1ncn2[C@@H]1O[C@H](COC(C(=O)O)P(=O)(O)O)[C@@H](O)[C@H]1O (stereo not given in full)
- IC50 (5'-nucleotidase [5]): 19 µM

SMILES: C=C[C@]1(C)C[C@@H](OC(=O)CSCCN(CC)CC)[C@]2(C)[C@H](C)CC[C@]3(CCC(=O)[C@H]32)[C@@H](C)[C@@H]1O
- inhibition (5'-nucleotidase [17]): 53.9%
- inhibition (5'-nucleotidase [18]): 31.4%

SMILES: O=c1c(O)c(-c2ccc(O)c(O)c2)oc2cc(O)cc(O)c12 [QUERCETIN]
- IC50 (5'-nucleotidase [7]): 45300 nM

SMILES: COc1cc(/C=N/N2C(=O)CNC2=S)cc(OC)c1OC
- inhibition at 100 µM (HeLa [10]): 4.31%
- cytotoxicity at 24 h, 100 µM [11]: 4.31%

SMILES: FC(F)(F)c1cc(Cl)c2cc(Br)ccc2n1
- IC50 (5'-nucleotidase [7]): 1720 nM

SMILES: Cc1cc2c(cc1O)c(=O)oc1cc(/C=C/c3ccc(O)c(O)c3)oc(=O)c12
- IC50 (5'-nucleotidase [5]): 35.1 µM

SMILES: CC1=CC(=O)C2(C=C(c3cc4oc(=O)c5cc(O)c(O)cc5c4c(=O)o3)c3cc(O)c(O)cc32)O1 (stereo not given)
- IC50 (5'-nucleotidase [5]): 6.72 µM

Second part, led by results:

- IC50 (5'-nucleotidase [2]): 6.2 µM
SMILES: O=C(CSc1nnc(-c2c[nH]c3ccccc23)n1Cc1ccccc1)NO

- Ki (5'-nucleotidase [3]): 530 nM
SMILES: Cc1ccc(C(=O)N2CCc3cc(-c4nc(NC(=O)CN5CCc6ccccc6C5)sc4C)ccc32)cc1

- IC50 (5'-nucleotidase [4]): 230 nM
SMILES: O=C(N/N=C/c1ccc(Br)cc1)c1ccccc1

- IC50 (5'-nucleotidase [4]): 13800 nM
SMILES: COc1ccc(/C=N/NC(=O)c2ccccc2)cc1

- IC50 (5'-nucleotidase [7]): 1130 nM
SMILES: COc1ccc(-c2ccc3nc(C(F)(F)F)cc(-c4ccc(OC)cc4)c3c2)cc1

- IC50 (5'-nucleotidase [7]): 290 nM
SMILES: O=C(Nc1ccncc1)c1ccc(Cl)cc1

- IC50 (5'-nucleotidase [7]): 320 nM
SMILES: CC(=O)c1sc(N/N=C/c2cc3ccccc3[nH]2)nc1C

- IC50 (5'-nucleotidase [4]): 210 nM
SMILES: O=C(N/N=C/c1cccnc1)c1ccccc1

- IC50 (5'-nucleotidase [7]): 320 nM
SMILES: CC(=O)c1sc(N/N=C/c2ccc(N(C)C)cc2)nc1C

- IC50 (5'-nucleotidase [7]): 1780 nM
SMILES: Fc1cccc(-c2ccc3nc(C(F)(F)F)cc(Cl)c3c2)c1

- IC50 (5'-nucleotidase [7]): 320 nM
SMILES: CC(=O)c1sc(N/N=C/c2ccc[nH]2)nc1C

- IC50 (5'-nucleotidase [7]): 280 nM
SMILES: COc1cccc(COc2ccc(/C=N/N3C(=O)CNC3=S)cc2)c1
- inhibition at 100 µM (HeLa [10]): 4.31%
- cytotoxicity at 24 h, 100 µM [11]: 4.31%

- IC50 (5'-nucleotidase [2]): 4.66 µM
SMILES: CC(=O)c1cc2ccccc2oc1=O [3-ACETYLCOUMARIN]

- IC50 [15]: 250 nM
SMILES: O=c1oc2ccccc2cc1-c1csc(/N=C/c2cccc([N+](=O)[O-])c2)n1

- IC50 (5'-nucleotidase [4]): 190 nM
SMILES: C/C(=N\NC(=O)c1ccncc1)N1N=C(c2ccc(F)cc2)CC1c1ccccc1 (stereo not given)

- IC50 (5'-nucleotidase [7]): 160 nM
SMILES: Cc1ccc(-n2cc(C#N)c3cc4c(=O)oc5ccc(C)cc5c4nc32)cc1

- IC50 (5'-nucleotidase [2]): 0.29 µM
SMILES: C/C(=N\NS(=O)(=O)c1ccccc1)c1cc2ccccc2oc1=O

- IC50 (5'-nucleotidase [7]): 1190 nM
SMILES: Fc1cccc(-c2ccc3nc(C(F)(F)F)cc(-c4cccc(F)c4)c3c2)c1

- IC50 (5'-nucleotidase [7]): 25800 nM
- IC50 (5'-nucleotidase [16]): 640 nM
SMILES: Cc1nn(-c2ccccc2)c2nc(-c3ccccc3O)ccc12

- IC50 (5'-nucleotidase [14]): 860 nM
SMILES: O=P(O)(O)CP(=O)(O)C[C@@H](O)[C@H]1O[C@@H](n2cc(-c3ccc4ccccc4c3)nn2)[C@H](O)[C@@H]1O

- IC50 (5'-nucleotidase [4]): 680 nM
SMILES: COc1cc(/C=N/NC(=O)c2ccccc2)ccc1O

- IC50 (5'-nucleotidase [7]): 45800 nM
SMILES: COc1ccc(CN(C)C(=O)Nc2sc3c(c2C(=O)OC(C)(C)C)CCN(Cc2ccccc2)C3)cc1OC
